This note sets out measurements from ChEMBL document CHEMBL5532675, “Discovery of 4-Ethoxy-6-chloro-5-azaindazoles as Novel PDE4 Inhibitors for the Treatment of Alcohol Use Disorder and Alcoholic Liver Diseases” (J Med Chem, 2024).

A short description of data set [1]: Oral bioavailability in Sprague-Dawley rat at 10 mg/kg measured after 48 hrs by LC-MS/MS analysis. It is filed as ADME, organism-based. Conditions: in vivo.
Data set [2] is described as follows: Half-life in Sprague-Dawley rat at 10 mg/kg, po measured after 48 hrs by LC-MS/MS analysis. Type of data set: ADME, organism-based. Conditions: in vivo.

As to `CCNc1cc(C(=O)C2CCCC2)ccc1OC`, in data set [1], the bioavailability (in general, dose-corrected exposure relative to a reference, in per cent) worked out at 43%. The half-life (in general, the time needed for the level to fall by half in the phase considered) in data set [2] is 59.4 min.
